Where a SMILES comes first, the peptide text is derived from it. [ ]: non-standard residue; d: D form. The star is where a group is joined. Nle = CCCC[C@H](N)C(=O)O; Bz = O=C(c1ccccc1)*
Experiments:
[1] = tested on: secretion of ACTH and β-endorphin; conditions: reported; cited from earlier work
[2] = mammals; reported; cited from earlier work
[3] = tested on: ACTH and β-endorphin-like (β-END-LI) secretion; assay: ACTH and β-END-LI secretion in vivo after intravenous administration; parameters: species or system rats; conditions: for stimulation of secretion of ACTH and β-END-LI: general procedure of Example III, in vitro or in vivo not stated
Source text: (§1) The synthetic and the natural rCRF were examined for their effects on the secretion of ACTH and β-endorphin in vitro and the synthetic rCRF was also examined in vivo.

[4] = lowering of blood pressure in rats; type: in vivo; conditions: for lowering of blood pressure: species not given, general procedure of Example III; for lowering of blood pressure compared with rCRF: relative to rCRF, species not stated
[5] = tested on: cultured rat pituitary cells; assay: secretion of ACTH and β-endorphin by cultured rat pituitary cells in vitro; type: cell-based; conditions: in vitro
Source text: as §1

CC[C@H](C)[C@H](NC(=O)[C@@H](NC(=O)[C@H](CC(=O)O)NC(=O)[C@H](CC(C)C)NC(=O)[C@H](CC(C)C)NC(=O)[C@H](CC(C)C)NC(=O)[C@H](CCCNC(=N)N)NC(=O)[C@H](CC(N)=O)NC(=O)[C@H](CC(N)=O)NC(=O)[C@H](C)NC(=O)[C@H](C)NC(=O)[C@H](CCC(N)=O)NC(=O)[C@H](CCC(N)=O)NC(=O)[C@H](CCCCN)NC(=O)[C@H](CCC(=O)O)NC(=O)[C@H](CCCCN)NC(=O)[C@H](CCC(=O)O)NC(=O)[C@H](CCC(N)=O)NC(=O)[C@H](CCCCN)NC(=O)[C@H](CCC(=O)O)NC(=O)[C@@H](NC(=O)[C@H](CCC(=O)O)NC(=O)[C@@H](NC(=O)[C@H](CCSC)NC(=O)[C@H](CCCCN)NC(=O)[C@H](CCCNC(=N)N)NC(=O)[C@H](CC(C)C)NC(=O)[C@H](CC(C)C)NC(=O)[C@H](CCC(=O)O)NC(=O)[C@H](CC(C)C)NC(=O)[C@H](CO)NC(=O)[C@H](CC(C)C)NC(=O)[C@H](CC(=O)O)NC(=O)[C@@H](NC(=O)[C@H](CO)NC(=O)[C@@H](NC(=O)[C@@H]1CCCN1C(=O)[C@@H]1CCCN1C(=O)CNC(=O)[C@@H]1CCC(=O)N1)[C@@H](C)CC)[C@@H](C)CC)[C@@H](C)CC)[C@@H](C)CC)[C@@H](C)O)C(N)=O [Sauvagine]
biological activity in stimulating the secretion of ACTH and β-endorphin [1]: stimulating the secretion of ACTH and β-endorphin
biological activity in lowering blood pressure [2]: biological activity in lowering blood pressure in mammals

CCCC[C@H](NC(=O)[C@@H](NC(=O)[C@H](CC(C)C)NC(=O)[C@H](CC(=O)O)NC(=O)[C@H](CC(C)C)NC(=O)[C@H](CO)NC(=O)[C@@H](NC(=O)[C@@H]1CCCN1C(=O)[C@@H]1CCCN1C(=O)[C@H](CCC(=O)O)NC(=O)CNC(=O)c1ccccc1)[C@@H](C)CC)[C@@H](C)O)C(=O)N[C@@H](Cc1c[nH]cn1)C(=O)N[C@@H](CC(C)C)C(=O)N[C@@H](CC(C)C)C(=O)N[C@@H](CCCNC(=N)N)C(=O)N[C@@H](CCC(=O)O)C(=O)N[C@H](C(=O)N[C@@H](CC(C)C)C(=O)N[C@@H](CCC(=O)O)C(=O)N[C@@H](CCSC)C(=O)N[C@@H](C)C(=O)N[C@@H](CCCNC(=N)N)C(=O)N[C@@H](C)C(=O)N[C@@H](CCC(=O)O)C(=O)N[C@@H](CCC(N)=O)C(=O)N[C@@H](CC(C)C)C(=O)N[C@@H](C)C(=O)N[C@@H](CCC(N)=O)C(=O)N[C@@H](CCC(N)=O)C(=O)N[C@@H](C)C(=O)N[C@@H](Cc1c[nH]cn1)C(=O)N[C@@H](CO)C(=O)N[C@@H](CC(N)=O)C(=O)N[C@@H](CCCNC(=N)N)C(=O)N[C@@H](CCCCN)C(=O)N[C@@H](CC(C)C)C(=O)N[C@@H](CCSC)C(=O)N[C@@H](CCC(=O)O)C(=O)N[C@H](C(=O)N[C@H](C(N)=O)[C@@H](C)CC)[C@@H](C)CC)C(C)C [XII] (Bz-GEPPISLDLT[Nle]HLLREVLEMARAEQLAQQAHSNRKLMEII-NH2)
stimulation of secretion of ACTH and β-END-LI [3]: stimulates the secretion of ACTH and β-END-LI
lowering of blood pressure [4]: very significant lowering of blood pressure

CC[C@H](C)[C@H](NC(=O)[C@@H](NC(=O)[C@H](CC(=O)O)NC(=O)[C@H](CCSC)NC(=O)[C@H](CC(C)C)NC(=O)[C@H](CC(C)C)NC(=O)[C@H](CCCNC(=N)N)NC(=O)[C@H](CC(N)=O)NC(=O)[C@H](CC(N)=O)NC(=O)[C@H](C)NC(=O)[C@H](C)NC(=O)[C@H](CCC(N)=O)NC(=O)[C@H](CCC(N)=O)NC(=O)[C@H](CCCCN)NC(=O)[C@H](CC(C)C)NC(=O)[C@H](CCCCN)NC(=O)[C@H](CCC(=O)O)NC(=O)[C@H](CCC(N)=O)NC(=O)[C@H](CCCCN)NC(=O)[C@H](CCC(=O)O)NC(=O)[C@@H](NC(=O)[C@H](CCC(=O)O)NC(=O)[C@@H](NC(=O)[C@H](CCSC)NC(=O)[C@H](CCCCN)NC(=O)[C@H](CCCNC(=N)N)NC(=O)[C@H](CC(C)C)NC(=O)[C@H](CC(C)C)NC(=O)[C@H](CCC(=O)O)NC(=O)[C@H](CC(C)C)NC(=O)[C@H](CO)NC(=O)[C@H](CC(C)C)NC(=O)[C@H](CC(=O)O)NC(=O)[C@@H](NC(=O)[C@H](CO)NC(=O)[C@@H](NC(=O)[C@@H]1CCCN1C(=O)[C@@H]1CCCN1C(=O)CNC(=O)[C@@H]1CCC(=O)N1)[C@@H](C)CC)[C@@H](C)CC)[C@@H](C)CC)[C@@H](C)CC)[C@@H](C)O)C(N)=O [XVIII]
stimulation of secretion of ACTH and β-END-LI [3]: stimulates the secretion of ACTH and β-END-LI
lowering of blood pressure [4]: very significant lowering of blood pressure

CC[C@H](C)[C@H](NC(=O)[C@@H](NC(=O)[C@H](CC(=O)O)NC(=O)[C@H](CC(C)C)NC(=O)[C@H](CC(C)C)NC(=O)[C@H](CC(C)C)NC(=O)[C@H](CCCNC(=N)N)NC(=O)[C@H](CC(N)=O)NC(=O)[C@H](CC(N)=O)NC(=O)[C@H](C)NC(=O)[C@H](C)NC(=O)[C@H](CCC(N)=O)NC(=O)[C@H](CCC(N)=O)NC(=O)[C@H](CCCCN)NC(=O)[C@H](CCC(=O)O)NC(=O)[C@H](CCCCN)NC(=O)[C@H](CCC(=O)O)NC(=O)[C@H](CCC(N)=O)NC(=O)[C@H](CCCCN)NC(=O)[C@H](CCCNC(=N)N)NC(=O)[C@H](C)NC(=O)[C@H](CCC(=O)O)NC(=O)[C@@H](NC(=O)[C@H](CCSC)NC(=O)[C@H](CCCCN)NC(=O)[C@H](CCCNC(=N)N)NC(=O)[C@H](CC(C)C)NC(=O)[C@H](CC(C)C)NC(=O)[C@H](CCC(=O)O)NC(=O)[C@H](CC(C)C)NC(=O)[C@H](CO)NC(=O)[C@H](CC(C)C)NC(=O)[C@H](CC(=O)O)NC(=O)[C@@H](NC(=O)[C@H](CO)NC(=O)[C@@H](NC(=O)[C@@H]1CCCN1C(=O)[C@@H]1CCCN1C(=O)CNC(=O)[C@@H]1CCC(=O)N1)[C@@H](C)CC)[C@@H](C)CC)[C@@H](C)CC)[C@@H](C)CC)C(N)=O [XVII]
stimulation of secretion of ACTH and β-END-LI [3]: stimulates the secretion of ACTH and β-END-LI
lowering of blood pressure [4]: very significant lowering of blood pressure

CC[C@H](C)[C@H](NC(=O)[C@@H](NC(=O)[C@H](CCC(=O)O)NC(=O)[C@H](CCSC)NC(=O)[C@H](CC(C)C)NC(=O)[C@H](CCCCN)NC(=O)[C@H](CCCNC(=N)N)NC(=O)[C@H](CC(N)=O)NC(=O)[C@H](CO)NC(=O)[C@H](Cc1c[nH]cn1)NC(=O)[C@H](C)NC(=O)[C@H](CCC(N)=O)NC(=O)[C@H](CCC(N)=O)NC(=O)[C@H](C)NC(=O)[C@H](CC(C)C)NC(=O)[C@H](CCC(N)=O)NC(=O)[C@H](CCC(=O)O)NC(=O)[C@H](C)NC(=O)[C@H](CCCNC(=N)N)NC(=O)[C@H](C)NC(=O)[C@H](CCSC)NC(=O)[C@H](CCC(=O)O)NC(=O)[C@H](CC(C)C)NC(=O)[C@@H](NC(=O)[C@H](CCC(=O)O)NC(=O)[C@H](CCCNC(=N)N)NC(=O)[C@H](CC(C)C)NC(=O)[C@H](CC(C)C)NC(=O)[C@H](Cc1c[nH]cn1)NC(=O)[C@H](Cc1ccccc1)NC(=O)[C@@H](NC(=O)[C@H](CC(C)C)NC(=O)[C@H](CC(=O)O)NC(=O)[C@H](CC(C)C)NC(=O)[C@H](CO)NC(=O)[C@@H](NC(=O)[C@@H]1CCCN1C(=O)[C@@H]1CCCN1C(=O)[C@H](CCC(=O)O)NC(=O)[C@H](CCC(=O)O)NC(=O)[C@@H](N)CO)[C@@H](C)CC)[C@@H](C)O)C(C)C)[C@@H](C)CC)C(N)=O [natural rCRF]
stimulation of ACTH and β-END-LI secretion in vivo (words) ([3]; in vivo, several rat preparations, listed as isolated rCRF): stimulate ACTH and β-endorphin activies
stimulation of secretion of ACTH and β-endorphin in vitro [5]: high potency
stimulation of secretion of ACTH and β-endorphin in vitro ([5]; listed as isolated rCRF): stimulate ACTH and β-endorphin activies

Ac-PPISLDLTFHLLREVLEMARAEQLAQQAHSNRKLMDII-NH2 [XIII]
stimulation of secretion of ACTH and β-END-LI [3]: stimulates the secretion of ACTH and β-END-LI
lowering of blood pressure compared with rCRF [4]: to a greater extent than rCRF
lowering of blood pressure [4]: very significant lowering of blood pressure

H-PPISIDLSLELLRKMIEIAKQEKEKQQAANNRLLMDTI-NH2 [XVI]
stimulation of secretion of ACTH and β-END-LI [3]: stimulates the secretion of ACTH and β-END-LI
lowering of blood pressure [4]: very significant lowering of blood pressure

H-SEEPPISLDLTFELLREVLEVARAEQLAQQAHSNRKLMEII-NH2 [IX]
stimulation of secretion of ACTH and β-END-LI [3]: stimulates the secretion of ACTH and β-END-LI
lowering of blood pressure compared with rCRF [4]: to a great extent than rCRF
lowering of blood pressure [4]: very significant lowering of blood pressure

H-SEEPPISLDLTFHLLREVAEMTRAEQLAQQAHSNRKLMEII-NH2 [VII]
stimulation of secretion of ACTH and β-END-LI [3]: stimulates the secretion of ACTH and β-END-LI
lowering of blood pressure [4]: very significant lowering of blood pressure

H-SEEPPISLDLTFHLLREVLEAARAEQLAQQAHSNRKLLEI[Nle]-NH2 [XI]
stimulation of secretion of ACTH and β-END-LI [3]: stimulates the secretion of ACTH and β-END-LI
lowering of blood pressure [4]: very significant lowering of blood pressure

H-SEEPPISLDLTFHLLREVLE[Nle]ARAEQLAQQAYSNRKLMEII-NH2 [XV]
stimulation of secretion of ACTH and β-END-LI [3]: stimulates the secretion of ACTH and β-END-LI
lowering of blood pressure compared with rCRF [4]: to a greater extent than rCRF
lowering of blood pressure [4]: very significant lowering of blood pressure

H-SEEPPIS[Nle]DLSFHLLREVLEMARAEQLAQQAHLNRKLMEII-NH2 [X]
stimulation of secretion of ACTH and β-END-LI [3]: stimulates the secretion of ACTH and β-END-LI
lowering of blood pressure [4]: very significant lowering of blood pressure

H-SQEPPISLDLTFHLLREVLEMAKAEQLAQQAHSNRKLLEII-NH2 [XIV]
stimulation of secretion of ACTH and β-END-LI [3]: stimulates the secretion of ACTH and β-END-LI
lowering of blood pressure [4]: very significant lowering of blood pressure
